Patent publication US20220304945A1, “METHODS OF TREATING METABOLIC SYNDROME RELATED CONDITIONS USING RETINOIC ACID RECEPTOR AGONISTS” (Cornell University, priority 2014, published 2022)
Entries after “also recorded” stand apart in the source; their conditions may differ.

Key:
[1] = system: srebp1-c, fas, dgat1, fgf21, ppar-γ, sirt1, ppar-α, srebp-2, hmgcr, pepck mRNA; experiment: Q-RT-PCR of hepatic lipogenic, cholesterol and gluconeogenic genes, HFD-fed mice (Example 15); assay type: in vivo, mouse
Procedure: (§1) WT male C57/BL6 male mice were maintained on either a standard laboratory chow-fed diet (Con) with 13% kcal fat, (diet #5053, Lab Diet, Inc, St. Louis, Mo.) or a high fat, western style diet (HFD) with 45% kcals from fat, (diet #58126, Lab Diet, Inc., St. Louis, Mo.) for 4 months. One month after the start of the HFD treatment, the HFD group was further split into 3 groups for 3 months: i) HFD and the drinking water containing 1% DMSO; ii) high fat diet (HFD) and drinking water containing 1.5 mg/100 ml AC261066, a specific RARβ agonist in 1% DMSO or iii) HFD and drinking water containing 1.5 mg/100 ml CD1530, a specific RARγ agonist in 1% DMSO. Then mice were sacrificed by cervical dislocation. Blood and various tissue samples were harvested.
Total RNA was extracted from mouse tissues using TRIzol reagent (Life technologies) and (1 μg) was used to synthesize cDNA. cDNA synthesis was performed at 42° C. for 1 h in a final volume of 20 μl using qScript (Quanta, MD). Q-RTPCR was performed as previously described (15). Primers for gene expression used were as follows: […]

RARβ2 = target: T1, RARβ2 (Homo sapiens, UniProt P10826); settings: as described in Lund et al. 2005; cited from earlier work
T1 sequence (P10826 1-448 isoform P10826-2): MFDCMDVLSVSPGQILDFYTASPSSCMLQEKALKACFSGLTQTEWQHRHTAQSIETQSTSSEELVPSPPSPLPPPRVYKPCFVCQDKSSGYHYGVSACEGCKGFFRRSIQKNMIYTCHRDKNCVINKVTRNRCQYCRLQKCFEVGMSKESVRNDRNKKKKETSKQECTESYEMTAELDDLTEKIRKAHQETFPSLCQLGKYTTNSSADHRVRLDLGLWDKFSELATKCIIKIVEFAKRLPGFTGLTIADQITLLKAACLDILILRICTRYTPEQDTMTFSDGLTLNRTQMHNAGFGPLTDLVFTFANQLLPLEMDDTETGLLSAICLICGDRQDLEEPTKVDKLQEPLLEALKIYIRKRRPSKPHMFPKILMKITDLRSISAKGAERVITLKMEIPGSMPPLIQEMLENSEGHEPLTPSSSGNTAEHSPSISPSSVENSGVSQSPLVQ

[2] = Serum triglyceride and cholesterol level measurements, HFD-fed mice (Examples 11-15); assay type: in vivo, mouse; settings: mice fed HFD 4 months, drug in drinking water (AC261066 1.5 mg/100 ml)
Procedure: AC261066(Lund et al., Discovery of a potent, orally available, and isoform-selective retinoic acid beta2 receptor agonist. J Med Chem. 2005; 48(24):7517-9) and CD1530 (Thacher et al. Therapeutic applications for ligands of retinoid receptors. Curr Pharm Des. 2000; 6(1):25-58) was dissolved in dimethyl sulfoxide (DMSO) at the concentration of 1.5 mg/ml for AC261066 and 2.5 mg/ml for CD1530, and diluted in the drinking water for mice to the final concentration of 1.5 mg/100 ml and 2.5 mg/100 ml, respectively.
as §1
The analysis of serum triglyceride levels was carried out using a bichromatic assay at the Laboratory of Comparative Pathology of the Memorial Sloan-Kettering Cancer Center. Chow-fed diet (Con) n=4; high fat diet (HFD) n=4; high fat diet (HFD)+AC261066 n=4; and high fat diet (HFD)+CD1530, n=4.

[3] = system: 4-HNE, oxidative stress in the liver; experiment: 4-HNE staining of liver, HF-fed mice; assay type: in vivo, mouse; settings: HF diet mice; vs high fat diet group
Description: Mice, diet, and drug treatment. WT male C57/BL6 male mice were maintained on either a standard laboratory chow-fed diet (CFD) with 13% kcal fat, (diet #5053, Lab Diet, Inc, St. Louis, Mo.) or a high fat, western style diet (HFD) with 60% kcals from fat, (diet #58126, Lab Diet, Inc., St. Louis, Mo.) for 4 months. One month after the start of the high fat diet treatment, the high fat diet group was further split into 2 groups for 3 months: i) high fat diet and the drinking water containing 1% DMSO; ii) high fat diet and the drinking water containing 1.5 mg/100 ml AC261066, a specific RARβ agonist. Then mice were sacrificed by cervical dislocation. Blood and various tissue samples were harvested.
4-hydroxynonenal (4-HNE) staining. Paraffin-embedded sections (from two to four mice per group) were deparaffinized and rehydrated, and antigen retrieval was performed using an antigen unmasking solution (Vector Laboratories, H-3300). After quenching endogenous peroxidase with 3% H2O2, the tissue sections were blocked with the blocking reagent (from the M.O.M. kit from Vector Laboratories). Then, tissue sections were incubated with a 4-HNE antibody (1:400; mouse monoclonal antibody; Abcam, ab48506) overnight at 4° C. The sections were then incubated with secondary antibodies (1:200, anti-mouse IgG from the M.O.M kit). […]

SMILES: CCCCOCCOc1nc(-c2ccc(C(=O)O)c(F)c2)sc1C [AC261066]
- hepatic gene expression of pepck [1]: not affected
- hepatic mRNA levels of lipogenic proteins srebp1-c, fas, dgat1, fgf21, ppar-γ [1]: greatly reduces; also recorded: significantly reduced
- hepatic mRNA levels of sirt1 and ppar-α [1]: prevented a large decrease
- hepatic mRNA levels of srebp-2 and hmgcr [1]: significantly reduced
- isoform selectivity for the human RARβ2 receptors (RARβ2): highly isoform-selective agonists
- serum cholesterol [2]: greatly reduces; also recorded: significantly lower
- serum triglycerides [2]: greatly reduces; also recorded: significantly lower
- 4-HNE level (oxidative stress, ROS) in liver [3]: reduces oxidative stress; also recorded: lower

SMILES: O=C(O)c1ccc(-c2ccc3cc(O)c(C45CC6CC(CC(C6)C4)C5)cc3c2)cc1 [CD1530]
- hepatic gene expression of pepck [1]: not affected
- hepatic mRNA levels of srebp-2 and hmgcr [1]: not observed
- serum cholesterol [2]: no decrease
- serum triglycerides [2]: no decrease
